Calls of active or inactive are those of the source. The calls are words filed in the database; no cut-off is given here.
How the values were obtained:
Histone deacetylase 1 = Histone deacetylase 1 (Homo sapiens, UniProt Q13547); test: Inhibition of HDAC1 (unknown origin) using p53 (379 to 382 residues) (RHKK(Ac-AMC) as fluorogenic substrate incubated for 1 hrs by fluorescence based assay
CCRF-CEM = test: Antiproliferative activity against human CCRF-CEM cells assessed as growth inhibition incubated for 72 hrs by luminescence assay; type: functional
HL-60 = test: Antiproliferative activity against human HL-60 cells assessed as growth inhibition incubated for 72 hrs by luminescence assay; type: functional
K562 = test: Antiproliferative activity against human K562 cells assessed as growth inhibition incubated for 72 hrs by luminescence assay; type: functional
RPMI-8226 = test: Antiproliferative activity against human RPMI-8226 cells assessed as growth inhibition incubated for 72 hrs by luminescence assay; type: functional
SR = test: Antiproliferative activity against human SR cells assessed as growth inhibition incubated for 72 hrs by luminescence assay; type: functional
HOP-62 = test: Antiproliferative activity against human HOP-62 cells assessed as growth inhibition incubated for 72 hrs by luminescence assay; type: functional
NCI-H226 = test: Antiproliferative activity against human NCI-H226 cells assessed as growth inhibition incubated for 72 hrs by luminescence assay; type: functional
NCI-H322M = test: Antiproliferative activity against human NCI-H322M cells assessed as growth inhibition incubated for 72 hrs by luminescence assay; type: functional
HCT-15 = test: Antiproliferative activity against human HCT-15 cells assessed as growth inhibition incubated for 72 hrs by luminescence assay; type: functional
HT-29 = test: Antiproliferative activity against human HT-29 cells assessed as growth inhibition incubated for 72 hrs by luminescence assay; type: functional
SW-620 = test: Antiproliferative activity against human SW-620 cells assessed as growth inhibition incubated for 72 hrs by luminescence assay; type: functional
SF-295 = test: Antiproliferative activity against human SF-295 cells assessed as growth inhibition incubated for 72 hrs by luminescence assay; type: functional
SNB-19 = test: Antiproliferative activity against human SNB-19 cells assessed as growth inhibition incubated for 72 hrs by luminescence assay; type: functional
PC-3 = test: Antiproliferative activity against human PC-3 cells assessed as growth inhibition incubated for 72 hrs by luminescence assay; type: functional
DU-145 = test: Antiproliferative activity against human DU-145 cells assessed as growth inhibition incubated for 72 hrs by luminescence assay; type: functional
LOX IMVI = test: Antiproliferative activity against human LOX IMVI cells assessed as growth inhibition incubated for 72 hrs by luminescence assay; type: functional
SK-MEL-2 = test: Antiproliferative activity against human SK-MEL-2 cells assessed as growth inhibition incubated for 72 hrs by luminescence assay; type: functional
SK-MEL-28 = test: Antiproliferative activity against human SK-MEL-28 cells assessed as growth inhibition incubated for 72 hrs by luminescence assay; type: functional
IGROV-1 = test: Antiproliferative activity against human IGROV-1 cells assessed as growth inhibition incubated for 72 hrs by luminescence assay; type: functional
OVCAR-3 = test: Antiproliferative activity against human OVCAR-3 cells assessed as growth inhibition incubated for 72 hrs by luminescence assay; type: functional
OVCAR-5 = test: Antiproliferative activity against human OVCAR-5 cells assessed as growth inhibition incubated for 72 hrs by luminescence assay; type: functional
SK-OV-3 = test: Antiproliferative activity against human SK-OV-3 cells assessed as growth inhibition incubated for 72 hrs by luminescence assay; type: functional
MDA-MB-231 = test: Antiproliferative activity against human MDA-MB-231 cells assessed as growth inhibition incubated for 72 hrs by luminescence assay; type: functional
BT-549 = test: Antiproliferative activity against human BT-549 cells assessed as growth inhibition incubated for 72 hrs by luminescence assay; type: functional
MDA-MB-468 = test: Antiproliferative activity against human MDA-MB-468 cells assessed as growth inhibition incubated for 72 hrs by luminescence assay; type: functional
786-0 = test: Antiproliferative activity against human 786-0 cells assessed as growth inhibition incubated for 72 hrs by luminescence assay; type: functional
A498 = test: Antiproliferative activity against human A498 cells assessed as growth inhibition incubated for 72 hrs by luminescence assay; type: functional
TK-10 = test: Antiproliferative activity against human TK-10 cells assessed as growth inhibition incubated for 72 hrs by luminescence assay; type: functional
Histone deacetylase 8 = Histone deacetylase 8 (Homo sapiens, UniProt Q9BY41); test: Inhibition of HDAC8 (unknown origin) using p53 (379 to 382 residues) (RHKK(Ac-AMC) as fluorogenic substrate incubated for 2 hrs by fluorescence based assay
Histone deacetylase 11 = Histone deacetylase 11 (Homo sapiens, UniProt Q96DB2); test: Inhibition of HDAC11 (unknown origin) using Boc-Lys(TFA)-AMC as fluorogenic substrate incubated for 30 mins by fluorescence based assay
HCT-116 = test: Effect on SNAI1 protein expression in human HCT-116 cells at 75 nM measured after 24 hrs by western blot analysis; type: functional, cell-based
[1] = Metabolic stability in monkey liver microsomes assessed as half life incubated for 10 mins by LC-MS/MS analysis; type: ADME, Macaca mulatta, Microsome; conditions: rhesus monkey
[2] = Metabolic stability in dog liver microsomes assessed as half life incubated for 10 mins by LC-MS/MS analysis; type: ADME, Canis lupus familiaris, Microsome
[3] = Metabolic stability in monkey liver microsomes assessed as intrinsic clearance incubated for 10 mins by LC-MS/MS analysis; type: ADME, Macaca mulatta, Microsome; conditions: rhesus monkey, read-out: CLH
[4] = Metabolic stability in monkey plasma assessed as half life at 100 uM measured upto 120 mins by LC-MS/MS analysis; type: ADME, cell-free, Macaca mulatta; conditions: rhesus monkey
[5] = Metabolic stability in dog plasma assessed as half life at 100 uM measured upto 120 mins by LC-MS/MS analysis; type: ADME, cell-free, Canis lupus familiaris
[6] = Metabolic stability in rat plasma assessed as half life at 100 uM measured upto 120 mins by LC-MS/MS analysis; type: ADME, cell-free
[7] = Metabolic stability in human plasma assessed as parent compound remaining at 100 uM measured after 2 hrs by LC-MS/MS analysis; type: ADME, cell-free; conditions: read-out: Stability
[8] = Metabolic stability in monkey plasma assessed as parent compound remaining at 100 uM measured after 2 hrs by LC-MS/MS analysis; type: ADME, cell-free, Macaca mulatta; conditions: rhesus monkey, read-out: Stability
[9] = Metabolic stability in rat plasma assessed as parent compound remaining at 100 uM measured after 2 hrs by LC-MS/MS analysis; type: ADME, cell-free; conditions: read-out: Stability
[10] = Cmax in Sprague-Dawley rat at 10 mg/kg, po measured up to 24 hrs by LC-MS/MS analysis; type: ADME, organism-based; design: route oral, dose 10 mg/kg, time <=24; conditions: in vivo
[11] = Volume of distribution at steady state in Sprague-Dawley rat at 1 mg/kg, iv measured up to 24 hrs by LC-MS/MS analysis; type: ADME, organism-based; conditions: in vivo, read-out: Vdss
[12] = AUC (0 to t) in Sprague-Dawley rat at 1 mg/kg, iv measured up to 24 hrs by LC-MS/MS analysis; type: ADME, organism-based; design: route intravenous, dose 1 mg/kg, time <=24; conditions: in vivo
[13] = AUC (0 to t) in Sprague-Dawley rat at 10 mg/kg, po measured up to 24 hrs by LC-MS/MS analysis; type: ADME, organism-based; design: route oral, dose 10 mg/kg, time <=24; conditions: in vivo
[14] = Half life in Sprague-Dawley rat at 1 mg/kg, iv measured up to 24 hrs by LC-MS/MS analysis; type: ADME, organism-based; conditions: in vivo

Chain of Histone deacetylase 11 (Q96DB2 whole entry): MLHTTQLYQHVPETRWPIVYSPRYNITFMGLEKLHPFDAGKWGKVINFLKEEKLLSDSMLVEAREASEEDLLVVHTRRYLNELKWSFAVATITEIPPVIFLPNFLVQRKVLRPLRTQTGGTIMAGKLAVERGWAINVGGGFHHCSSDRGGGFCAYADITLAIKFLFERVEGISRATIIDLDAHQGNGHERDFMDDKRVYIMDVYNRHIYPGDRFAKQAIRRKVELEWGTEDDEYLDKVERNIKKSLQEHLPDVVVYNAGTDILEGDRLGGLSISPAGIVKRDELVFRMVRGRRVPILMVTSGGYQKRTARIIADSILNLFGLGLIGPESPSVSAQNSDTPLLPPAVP
Chain of Histone deacetylase 1 (Q13547 whole entry, the tested form may be a part): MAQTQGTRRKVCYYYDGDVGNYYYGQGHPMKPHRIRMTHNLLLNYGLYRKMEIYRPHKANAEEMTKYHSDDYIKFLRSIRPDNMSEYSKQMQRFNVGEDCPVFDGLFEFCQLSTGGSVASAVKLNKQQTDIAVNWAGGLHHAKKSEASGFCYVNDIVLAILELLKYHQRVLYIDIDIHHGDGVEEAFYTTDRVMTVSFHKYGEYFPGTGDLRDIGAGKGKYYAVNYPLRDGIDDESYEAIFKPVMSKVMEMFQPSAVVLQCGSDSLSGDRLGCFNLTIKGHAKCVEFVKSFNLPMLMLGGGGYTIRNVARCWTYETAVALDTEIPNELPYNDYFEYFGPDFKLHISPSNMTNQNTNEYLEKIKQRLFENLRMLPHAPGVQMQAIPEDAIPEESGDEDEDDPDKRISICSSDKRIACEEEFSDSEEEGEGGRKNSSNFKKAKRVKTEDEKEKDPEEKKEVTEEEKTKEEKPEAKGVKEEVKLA
Chain of Histone deacetylase 8 (Q9BY41 whole entry, the tested form may be a part): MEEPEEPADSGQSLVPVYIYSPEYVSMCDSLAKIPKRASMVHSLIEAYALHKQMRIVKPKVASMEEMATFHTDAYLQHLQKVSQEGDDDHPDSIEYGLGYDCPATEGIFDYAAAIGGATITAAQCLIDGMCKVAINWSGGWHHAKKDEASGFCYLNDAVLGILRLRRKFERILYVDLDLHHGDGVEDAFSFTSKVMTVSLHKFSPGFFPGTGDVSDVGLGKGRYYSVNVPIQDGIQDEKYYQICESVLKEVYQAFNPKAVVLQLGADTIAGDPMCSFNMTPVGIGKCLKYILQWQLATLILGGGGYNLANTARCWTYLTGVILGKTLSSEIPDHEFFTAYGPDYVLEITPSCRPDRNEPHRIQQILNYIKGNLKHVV

## Cc1cc(Nc2nc(SCc3ccc(C(=O)Nc4ccc(F)cc4N)cc3)nn3cccc23)n[nH]1
Histone deacetylase 1
  IC50: 405 nM
CCRF-CEM
  GI50: 411 nM
HL-60
  GI50: 268 nM
K562
  GI50: 48.7 nM
RPMI-8226
  GI50: 514 nM
SR
  GI50: 68 nM
HOP-62
  GI50: 556 nM
NCI-H226
  GI50: 2700 nM
NCI-H322M
  GI50: 1010 nM
HCT-15
  GI50: 424 nM
HT-29
  GI50: 322 nM
SW-620
  GI50: 426 nM
SF-295
  GI50: 354 nM
SNB-19
  GI50: 536 nM
PC-3
  GI50: 355 nM
DU-145
  GI50: 461 nM
LOX IMVI
  GI50: 665 nM
SK-MEL-2
  GI50: 617 nM
SK-MEL-28
  GI50: 2830 nM
IGROV-1
  GI50: 558 nM
OVCAR-3
  GI50: 202 nM
OVCAR-5
  GI50: 657 nM
SK-OV-3
  GI50: 339 nM
MDA-MB-231
  GI50: 854 nM
BT-549
  GI50: 296 nM
MDA-MB-468
  GI50: 432 nM
786-0
  GI50: 466 nM
A498
  GI50: 623 nM
TK-10
  GI50: 1210 nM
Histone deacetylase 8
  IC50: > 10000 nM
Histone deacetylase 11
  IC50: > 10000 nM
HCT-116
  Activity: Active
[1]
  half-life: 0.463 h
[2]
  half-life: 0.868 h
[3]
  microsomal CLint: 50.3 µL/min/mg
[4]
  half-life at 100 µM: 5.5 h
[5]
  half-life at 100 µM: 7.15 h
[6]
  half-life at 100 µM: 8.58 h
[7]
  remaining at 2 h, 100 µM: 79.1%
[8]
  remaining at 2 h, 100 µM: 82.4%
[9]
  remaining at 2 h, 100 µM: 105%
[10]
  Cmax: 6.61 ng/mL
[11]
  Vd: 1.06 L/kg
[12]
  AUCt: 715 ng·h/mL
[13]
  AUCt: 52.1 ng·h/mL
[14]
  t1/2: 0.303 h

— ChEMBL document CHEMBL5046255, “Design and synthesis of dual inhibitors targeting snail and histone deacetylase for the treatment of solid tumour cancer” (Eur J Med Chem, 2022)
